Results on 26 compounds are retold here after patent US20240368104A1, “Novel Dialkoxynaphtho[2,3-C]Furan-1(3H)-One Derivatives and Pharmaceutical Composition For Preventing or Treating Respiratory Disease or SARS-COV-2 Infection Disease, Comprising Same” (priority 2021, published 2024).

Structures can show the parent of a compound that is named as a salt. Where two headings read alike, the source gives them in different places. Bounds are passed on as bounds.

Data set [1] is described as follows: in vitro. To be noted: African green monkey.
In data set [2] the test system is SARS-COV-2. Description: microbe, parasite or virus in culture. It counts as cell-based. Details: SI (Selectivity Index, CC50/IC50): unit not given here. The conditions noted are these: for SI (Selectivity Index, CC50/IC50): SARS-COV-2, values >50 assumed to be 50; for IC50: read-out: SARS-COV-2 inhibition (IC50).
[3] abbreviates: Severe acute respiratory syndrome coronavirus 2, Vero, 24 h.
Setting [4] is: Severe acute respiratory syndrome coronavirus 2, Vero cells, 24 hours infection.

The IC50 is the concentration at which inhibition is half-maximal.

`COc1cc2cc3c(c(-c4cnc(N(C)CCC5=CCCCC5)nc4)c2cc1OC)C(=O)OC3.Cl` [Example 101, 9-(2-((2-(cyclohex-1-en-1-yl)ethyl)(methyl)amino)pyrimidin-5-yl)-6,7-dimethoxynaphtho[2,3-c]furan-1(3H)-one hydrochloride]: in data set [1], the CC50 was over 50 µM. Further, in data set [2], the “SI (Selectivity Index, CC50/IC50)” value came out at 13.00. Further, in data set [2] (setting [3]), the IC50 stood at 3.85 µM.

With `COc1cc2cc3c(c(-c4ccc(N5CCC(Cl)CC5)nc4)c2cc1OC)C(=O)OC3` [Example 142, 9-(6-(4-chloropiperidin-1-yl)pyridin-3-yl)-6,7-dimethoxynaphtho[2,3-c]furan-1(3H)-one], the CC50 in data set [1] is over 50 µM. Besides, in data set [2], the “SI (Selectivity Index, CC50/IC50)” value worked out at 25.00. Also, the half-inhibitory concentration (IC50) in data set [2] (setting [4]) is 2 µM.

For the compound `COc1cc2cc3c(c(-c4cnc(N5CCC(N(C)C)CC5)nc4)c2cc1OC)C(=O)OC3` [Example 205, 9-(2-(4-(dimethylamino)piperidin-1-yl)pyrimidin-5-yl)-6,7-dimethoxynaphtho[2,3-c]furan-1(3H)-one], in data set [1], the CC50 was over 50 µM. Further, in data set [2], the “SI (Selectivity Index, CC50/IC50)” value is 7.75. Besides, in data set [2] (setting [4]), the half-maximal inhibitory concentration (IC50) is 6.46 µM.

Regarding `COc1cc2cc3c(c(-c4cnc(N5CCC[C@@H]5CN5CCCC5)nc4)c2cc1OC)C(=O)OC3` [Example 110, (R)-6,7-dimethoxy-9-(2-(2-(pyrrolidin-1-ylmethyl)pyrrolidin-1-yl)pyrimidin-5-yl)naphtho[2,3-c]furan-1(3H)-one], in data set [1], the CC50 is over 50 µM. For the same compound, in data set [2], the “SI (Selectivity Index, CC50/IC50)” value was determined as 5.78. In addition, the IC50 in data set [2] (setting [4]) is 8.66 µM.

`COc1cc2cc3c(c(-c4cnc(Cl)c(N(C)C)c4)c2cc1OC)C(=O)OC3` [Example 201, 9-(6-chloro-5-(dimethylamino)pyridin-3-yl)-6,7-dimethoxynaphtho[2,3-c]furan-1(3H)-one] showed a CC50 in data set [1] of over 50 µM. Further, the “SI (Selectivity Index, CC50/IC50)” value in data set [2] worked out at 39.52. The IC50 in data set [2] (setting [4]) came to 1.27 µM.

In turn, `COc1cc2c(OC)c3c(c(-c4ccc(N(C)c5cccc(C(F)(F)F)c5)nc4)c2cc1OC)COC3=O.Cl` [Example 263, 6,7,9-trimethoxy-4-(6-(methyl(3-(trifluoromethyl)phenyl)amino)pyridin-3-yl)naphtho[2,3-c]furan-1(3H)-one] had a CC50 in data set [1] of over 50 µM. Further, the “SI (Selectivity Index, CC50/IC50)” value in data set [2] came out at 1.00. Further, the IC50 in data set [2] (setting [3]) is over 50 µM.

The compound `COCCN(C)c1ccc(-c2c3c(cc4cc(OC)c(OC)cc24)COC3=O)cn1.Cl` [Example 168, 6,7-dimethoxy-9-(6-((2-methoxyethyl)(methyl)amino)pyridin-3-yl)naphtho[2,3-c]furan-1(3H)-one hydrochloride] came in with a CC50 in data set [1] of over 50 µM. Besides, the “SI (Selectivity Index, CC50/IC50)” value in data set [2] amounted to 42.46. Further, the IC50 in data set [2] (setting [3]) amounted to 1.18 µM.

`COc1cc2cc3c(c(-c4ccc(N(C)c5ccc(S)cc5)nc4)c2cc1OC)C(=O)OC3.Cl` [Example 239, 9-(6-((4-mercaptophenyl)(methyl)amino)pyridin-3-yl)-6,7-dimethoxynaphtho[2,3-c]furan-1(3H)-one]: the CC50 in data set [1] is over 50 µM. Besides, the “SI (Selectivity Index, CC50/IC50)” value in data set [2] stood at 1.00. The 50% inhibitory concentration (IC50) in data set [2] (setting [3]) is over 50 µM.

For the compound `COc1cc2cc(CO)c(C(=O)NC(C)C)c(-c3cc4c(cc3O)OCO4)c2cc1OC` [Example 228, 1-(6-hydroxybenzo[d][1,3]dioxol-5-yl)-3-(hydroxymethyl)-N-isopropyl-6,7-dimethoxy-2-naphthamide], the CC50 in data set [1] is over 50 µM. Also, in data set [2], the “SI (Selectivity Index, CC50/IC50)” value is reported as 1.50. For the same compound, the IC50 in data set [2] (setting [4]) turned out to be 33.4 µM.

Regarding `COc1ccc2c(-c3c4c(cc5cc(OC)c(OC)cc35)COC4=O)ccnc2c1` [Example 150, 6,7-dimethoxy-9-(7-methoxyquinolin-4-yl)naphtho[2,3-c]furan-1(3H)-one], in data set [1], the CC50 was over 50 µM. Further, in data set [2], the “SI (Selectivity Index, CC50/IC50)” value was 1.0. In addition, the IC50 in data set [2] (setting [4]) was over 50 µM.

As for `COc1cc2c(OC)c3c(c(-c4ccc(-n5cc(C#N)c(N(C)C)n5)nc4)c2cc1OC)COC3=O` [Example 264, 3-(dimethylamino)-1-(5-(6,7,9-trimethoxy-1-oxo-1,3-dihydronaphtho[2,3-c]furan-4-yl)pyridin-2-yl)-1H-pyrazol-4-carbonitrile], in data set [1], the CC50 was over 50 µM. In addition, the “SI (Selectivity Index, CC50/IC50)” value in data set [2] is given as 1.00. Moreover, in data set [2] (setting [4]), the 50% inhibitory concentration (IC50) is over 50 µM.

In turn, `COc1cc2cc3c(c(-c4cnc(N(C)CCCN5CCOCC5)nc4)c2cc1OC)C(=O)OC3` [Example 112, 6,7-dimethoxy-9-(2-(methyl(3-morpholinopropyl)amino)pyrimidin-5-yl)naphtho[2,3-c]furan-1(3H)-one dihydrochloride] gave a CC50 in data set [1] of over 50 µM. For the same compound, the “SI (Selectivity Index, CC50/IC50)” value in data set [2] was 6.70. For the same compound, the concentration for half-maximal inhibition (IC50) in data set [2] (setting [3]) was 7.46 µM.

On to `CCCCCCCCN(CCCCCCCC)c1ncc(-c2c3c(cc4cc(OC)c(OC)cc24)COC3=O)cn1.Cl` [Example 95, 9-(2-(dioctylamino)pyrimidin-5-yl)-6,7-dimethoxynaphtho[2,3-c]furan-1(3H)-one hydrochloride], for which, in data set [1], the CC50 is over 50 µM. Besides, the “SI (Selectivity Index, CC50/IC50)” value in data set [2] is 1.00. The half-maximal inhibitory concentration (IC50) in data set [2] (setting [3]) is over 50 µM.

`COc1cc2cc3c(c(-c4cnc(NC5CC5)nc4)c2cc1OC)C(=O)OC3` [Example 69, 9-(2-(cyclopropylamino)pyrimidin-5-yl)-6,7-dimethoxynaphtho[2,3-c]furan-1(3H)-one] gave a CC50 in data set [1] of over 50 µM. Further, the “SI (Selectivity Index, CC50/IC50)” value in data set [2] came out at 1.00. Moreover, the IC50 in data set [2] (setting [4]) is over 50 µM.

Compound `COc1cc2cc3c(c(-c4ccc(N5CCn6c(nnc6C(F)(F)F)C5)nc4)c2cc1OC)C(=O)OC3` [Example 240, 6,7-dimethoxy-9-(6-(3-(trifluoromethyl)-5,6-dihydro-[1,2,4]triazolo[4,3-a]pyrazin-7 (8H)-yl)pyridin-3-yl)naphtho[2,3-c]furan-1(3H)-one] showed a CC50 in data set [1] of over 50 µM. Besides, in data set [2], the “SI (Selectivity Index, CC50/IC50)” value was determined as 1.00. For the same compound, the IC50 in data set [2] (setting [4]) was over 50 µM.

Turning to `COc1cc2cc3c(c(-c4cc5c(cc4OC(=O)c4cccnc4)OCO5)c2cc1OC)C(=O)OC3` [Example 272, 6-(6,7-dimethoxy-3-oxo-1,3-dihydronaphtho[2,3-c]furan-4-yl)benzo[d][1,3]dioxol-5-yl nicotinate], the CC50 in data set [1] was over 50 µM. Moreover, the “SI (Selectivity Index, CC50/IC50)” value in data set [2] stood at 27.23. Also, the 50% inhibitory concentration (IC50) in data set [2] (setting [4]) was 1.84 µM.

The compound `COc1cc2cc3c(c(-c4ccc5nc(C)cc(O)c5c4)c2cc1OC)C(=O)OC3` [Example 147, 9-(4-hydroxy-2-methylquinolin-6-yl)-6,7-dimethoxynaphtho[2,3-c]furan-1(3H)-one] registered a CC50 in data set [1] of over 50 µM. Further, in data set [2], the “SI (Selectivity Index, CC50/IC50)” value is listed as 1.0. For the same compound, the IC50 in data set [2] (setting [4]) is over 50 µM.

Compound `COc1cc2cc3c(c(-c4ccc5nccc(N6CCNCC6)c5c4)c2cc1OC)C(=O)OC3` [Example 135, 6,7-dimethoxy-9-(4-(piperazin-1-yl)quinolin-6-yl)naphtho[2,3-c]furan-1(3H)-one] yielded a CC50 in data set [1] of over 50 µM. Further, in data set [2], the “SI (Selectivity Index, CC50/IC50)” value amounted to 2.90. Besides, the half-maximal inhibitory concentration (IC50) in data set [2] (setting [4]) came out at 17.2 µM.

As to `COc1cc2cc3c(c(-c4cnc(N(C)CCN5CCOCC5)nc4)c2cc1OC)C(=O)OC3` [Example 111, 6,7-dimethoxy-9-(2-(methyl(2-morpholinoethyl)amino)pyrimidin-5-yl)naphtho[2,3-c]furan-1(3H)-one hydrochloride], the CC50 in data set [1] is over 50 µM. For the same compound, the “SI (Selectivity Index, CC50/IC50)” value in data set [2] was determined as 2.37. The IC50 in data set [2] (setting [3]) was found to be 21.1 µM.

`COc1cc2cc3c(c(-c4cnc(OCCN5C[C@@H](C)O[C@@H](C)C5)nc4)c2cc1OC)C(=O)OC3` [Example 54, 9-(2-(2-((2S,6R)-2,6-dimethylmorpholino)ethoxy)pyrimidin-5-yl)-6,7-dimethoxynaphtho[2,3-c]furan-1(3H)-one]: the CC50 in data set [1] is over 50 µM. In data set [2], the “SI (Selectivity Index, CC50/IC50)” value amounted to 1.00. Besides, in data set [2] (setting [4]), the half-maximal inhibitory concentration (IC50) is over 50 µM.

As to `COc1cc2cc3c(c(-c4cnc(N5CC(C)(C)OC(C)(C)C5)nc4)c2cc1OC)C(=O)OC3` [Example 114, 6,7-dimethoxy-9-(2-(2,2,6,6-tetramethylmorpholino)pyrimidin-5-yl)naphtho[2,3-c]furan-1(3H)-one], the CC50 in data set [1] was over 50 µM. Also, in data set [2], the “SI (Selectivity Index, CC50/IC50)” value stood at 1.0. In data set [2] (setting [4]), the IC50 is over 50 µM.

In the case of `CCNc1cccc(-c2c3c(cc4cc(OC)c(OC)cc24)COC3=O)c1` [Example 258, 9-(3-(ethylamino)phenyl)-6,7-dimethoxynaphtho[2,3-c]furan-1(3H)-one], the CC50 in data set [1] is over 50 µM. The “SI (Selectivity Index, CC50/IC50)” value in data set [2] was 3.04. Besides, in data set [2] (setting [4]), the half-inhibitory concentration (IC50) came out at 16.5 µM.

Consider `COc1cc2cc3c(c(N4CCN(c5cc(Cl)nc(SC)n5)CC4)c2cc1OC)C(=O)OC3` [Example 130, 9-(4-(6-chloro-2-(methylthio)pyrimidin-4-yl)pilerazin-1-yl)-6,7-dimethoxynaphtho[2,3-c]furan-1(3H)-one], for which the CC50 in data set [1] is over 50 µM. The “SI (Selectivity Index, CC50/IC50)” value in data set [2] was 1.0. The 50% inhibitory concentration (IC50) in data set [2] (setting [4]) is over 50 µM.

Consider `COc1cc2cc3c(c(-c4cnc(N)cn4)c2cc1OC)C(=O)OC3` [Example 30, 9-(5-aminopyrazin-2-yl)-6,7-dimethoxynaphtho[2,3-c]furan-1(3H)-one], for which the CC50 in data set [1] was over 50 µM. For the same compound, in data set [2], the “SI (Selectivity Index, CC50/IC50)” value is 1.00. In addition, in data set [2] (setting [4]), the half-maximal inhibitory concentration (IC50) was over 50 µM.

Regarding `CCN(CCc1cn(CC)c2ccccc12)c1ccc(-c2c3c(cc4cc(OC)c(OC)cc24)COC3=O)cn1` [Example 197, 9-(6-(ethyl(2-(1-ethyl-1H-indol-3-yl)ethyl)amino)pyridin-3-yl)-6,7-dimethoxynaphtho[2,3-c]furan-1(3H)-one], the CC50 in data set [1] was over 50 µM. Besides, in data set [2], the “SI (Selectivity Index, CC50/IC50)” value worked out at 2.88. Besides, in data set [2] (setting [4]), the IC50 stood at 17.4 µM.

Consider `CC[C@H](C)[C@H](N)C(=O)Oc1cc2c(cc1-c1c3c(cc4cc(OC)c(OC)cc14)COC3=O)OCO2` [Example 270, 6-(6,7-dimethoxy-3-oxo-1,3-dihydronaphtho[2,3-c]furan-4-yl)benzo[d][1,3]dioxol-5-yl L-isoleucinate], for which the CC50 in data set [1] is over 50 µM. Also, the “SI (Selectivity Index, CC50/IC50)” value in data set [2] is reported as 122.64. Also, in data set [2] (setting [3]), the IC50 was determined as 0.41 µM.
